Experimental data taken from US20050004011A1, “Compositions and methods for treating bacterial infections with protein-dalbavancin complexes” (priority 2002, published 2005).

Columns and labels:
S. aureus = assay: Dalbavancin MIC of baseline isolates; format: cell-based; details: All S. aureus
human α-glycoprotein = assay: Protein binding by isothermal titration microcalorimetry; details: for apparent binding affinity Ka: pH 7.4; for Calculated percent binding: α-glycoprotein […]10^−5M
Experimental: Integrated heat effects, after correction for heats of dilution, were analyzed by non-linear regression using a simple single-site binding model with the standard Microcal ORIGIN software package. Raw data (μcal/sec) for each injection were integrated to give the total heat effect per addition, then divided by amount of injectant to give kcal/mole of injectant. The same integration was applied for control dilution effects, and this was subtracted from the actual titration data. This provided a differential of the binding curve in which the extent of binding is proportional to the total heat liberated (or absorbed). This was then analyzed by non-linear regression methods in terms of various standard binding models.

[1] = Stability of dalbavancin in plasma; format: in vitro ADME, human
Experimental: A quality control standard of 1.5 μg/ml was prepared by spiking human plasma with an appropriate volume of a 50 μg/ml solution.

[2] = Phase II SSTI trial: adverse events; format: in vivo, human
Experimental: Each patient who received at least one dose of study drug (ITT population) was evaluated for drug safety through monitoring of adverse events (AE), including abnormal clinical laboratory test results and vital signs. AE were rated by the investigator as to their severity (mild, moderate, severe, life-threatening), and by the relationship to the study drug (not related, unlikely related, possibly related, or probably related).

Group B streptococcus = assay: Dalbavancin MIC of baseline isolates; format: cell-based
[3] = Rat quantitative tissue distribution (QTD) study; format: in vivo, Sprague-Dawley rats
Experimental: Quantitative tissue distribution studies were conducted to assess the tissue distribution of dalbavancin following a single IV infusion of dalbavancin to male rats.
All samples were analyzed by LSC.

[4] = MITT isolates of standard of care group
[5] = MITT isolates of two-dose group

With `CN[C@H]1C(=O)N[C@@H]2Cc3ccc(cc3)Oc3cc4cc(c3O[C@@H]3O[C@H](C(=O)O)[C@@H](O)[C@H](O)[C@H]3NC(=O)CCCCCCCCC(C)C)Oc3ccc(cc3Cl)[C@@H](O)[C@@H]3NC(=O)[C@H](NC(=O)[C@@H]4NC(=O)[C@@H](NC2=O)c2cc(cc(O)c2Cl)Oc2cc1ccc2O)c1ccc(O)c(c1)-c1c(O[C@H]2O[C@H](CO)[C@@H](O)[C@H](O)[C@@H]2O)cc(O)cc1[C@@H](C(=O)NCCCN(C)C)NC3=O` [Dalbavancin] the “Dalbavancin MIC” value (S. aureus; MITT isolates of single-dose group) was “(0.12) mg/L”, the “Dalbavancin MIC range” value (S. aureus; [4]) was “(0.016-0.25) mg/L” and the “Dalbavancin MIC” value (S. aureus; [5]) was “(0.12) mg/L”. For the same compound, the “apparent binding affinity Ka” value (human α-glycoprotein; 25° C.) was 1.84 (±0.36) ×10^5 M^−1, the “apparent binding affinity Ka” value (human α-glycoprotein; 37° C.) was 4.8 (±2.3) ×10^5 M^−1 and the Calculated percent binding (human α-glycoprotein; antibiotic 1 μM) was 73.0%. For the same compound, the Calculated percent binding (human α-glycoprotein; antibiotic 500 μM) was 5.9%, the “Stability in processed plasma samples” value ([1]; 24 hours at room temperature) was “stable” and the “Stability in human plasma, detectable concentration” value ([1]; three cycles of freeze-thaw, 1.5 and 90 μg/ml) was “stable”. The “Clinically significant hepatotoxicity or nephrotoxicity” value ([2]; both dalbavancin regimens) was “no evidence”, the Tolerability ([2]; both doses) was “well tolerated” and the “Dalbavancin MIC” value (Group B streptococcus; [4]) was “(0.016) mg/L”. For the same compound, the “Dalbavancin MIC” value (Group B streptococcus; [5]) was “(0.016) mg/L”, the “dose recovered in the bile” value ([3]; bile duct cannulated rats, over 384 h after the dose) was roughly 11% and the “Concentrations of radioactivity in the CNS” value ([3]; healthy animal model) was “low but detectable”. The “time by which all tissues had quantifiable drug-derived radioactivity” value ([3]; post-infusion, 20 mg/kg IV) was no more than 12 h, the “accumulation in tissue, organ or blood cellular component” value ([3]; rat, in vivo) was “did not accumulate” and the “skin concentrations of drug-derived radioactivity” value ([3]; relative to plasma) was “as high as or higher than in plasma”. The “Blood to plasma ratio of drug-derived radioactivity” value ([3]; relatively constant over time) was less than 1.
